This note sets out measurements from patent publication US20240376084A1, “INHIBITORS OF ALPHA-HEMOLYSIN OF STAPHYLOCOCCUS AUREUS” (Helmholtz-Zentrum Fur Infektionsforschung GmbH, priority 2021, published 2024).

Assay [1] concerns the target S. aureus Alpha hemolysin (Staphylococcus aureus, UniProt P09616). Kind of assay: cell-based. The following applies: A549-LDH Assay activity.
In assay [2] the target is hemolysin alpha from Staphylococcus aureus (Staphylococcus aureus, UniProt P09616). Kind of assay: cell-based.
Sequence of hemolysin alpha from Staphylococcus aureus (P09616 27-319 limits assumed): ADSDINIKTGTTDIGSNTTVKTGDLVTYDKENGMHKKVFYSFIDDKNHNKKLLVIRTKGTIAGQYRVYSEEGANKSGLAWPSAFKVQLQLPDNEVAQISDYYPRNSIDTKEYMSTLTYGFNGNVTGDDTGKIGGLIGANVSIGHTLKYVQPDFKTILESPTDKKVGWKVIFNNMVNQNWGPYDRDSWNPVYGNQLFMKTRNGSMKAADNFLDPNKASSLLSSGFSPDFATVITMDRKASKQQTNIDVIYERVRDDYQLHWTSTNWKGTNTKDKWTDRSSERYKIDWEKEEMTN

Sequence of S. aureus Alpha hemolysin (P09616 27-319 limits assumed): as above

In general, EC50 refers to the concentration that produces a half-maximal response. A lower EC50 goes with an effect from little substance. With `Cc1cc2[nH]c(=O)c(=O)[nH]c2cc1S(=O)(=O)Nc1ccc(-c2cccc(C(F)(F)F)c2)c(Cl)c1` [Compound 316, N-[3-chloro-4-[3-(trifluoromethyl)phenyl]phenyl]-7-methyl-2,3-dioxo-1,4-dihydroquinoxaline-6-sulfonamide], the values for the EC50 in assay [1] and in assay [2] were 1000 to 6000 nM and 30 to 100 nM, respectively.
For `Cc1cc2[nH]c(=O)c(=O)[nH]c2cc1S(=O)(=O)Nc1ccc(-c2ccc(C(F)(F)F)cc2)c(Cl)c1` [Compound 317, N-[3-chloro-4-[4-(trifluoromethyl)phenyl]phenyl]-7-methyl-2,3-dioxo-1,4-dihydroquinoxaline-6-sulfonamide] the same measures were 1000 to 6000 nM and 100 to 1000 nM.
For `Cc1cc2[nH]c(=O)c(=O)[nH]c2cc1S(=O)(=O)Nc1ccc(-c2cccc(C#N)c2)c(Cl)c1` [Compound 318, N-[3-chloro-4-(3-cyanophenyl)phenyl]-7-methyl-2,3-dioxo-1,4-dihydroquinoxaline-6-sulfonamide] the same measures were 100 to 1000 nM and 30 to 100 nM.
For the compound `CCOc1ccc(-c2ccc(NS(=O)(=O)c3cc4[nH]c(=O)c(=O)[nH]c4cc3C)cc2Cl)cc1` [Compound 319, N-[3-chloro-4-(4-ethoxyphenyl)phenyl]-7-methyl-2,3-dioxo-1,4-dihydroquinoxaline-6-sulfonamide], the EC50 fell in the range of 100 to 1000 nM in assay [1] and 30 to 100 nM in assay [2].
For `COc1ccc(-c2ccc(NS(=O)(=O)c3cc4[nH]c(=O)c(=O)[nH]c4cc3C)cc2Cl)cc1F` [Compound 320, N-[3-chloro-4-(3-fluoro-4-methoxy-phenyl)phenyl]-7-methyl-2,3-dioxo-1,4-dihydroquinoxaline-6-sulfonamide] the same measures were < 30 nM and < 30 nM.
For `Cc1cc2[nH]c(=O)c(=O)[nH]c2cc1S(=O)(=O)Nc1ccc(Cc2ccccc2)c(Cl)c1` [Compound 321, N-(4-benzyl-3-chloro-phenyl)-7-methyl-2,3-dioxo-1,4-dihydroquinoxaline-6-sulfonamide] the same measures were 100 to 1000 nM and 100 to 1000 nM.
For `Cc1cc2[nH]c(=O)c(=O)[nH]c2cc1S(=O)(=O)Nc1ccc(OC(F)(F)F)c(Br)c1` [Compound 322, N-[3-bromo-4-(trifluoromethoxy)phenyl]-7-methyl-2,3-dioxo-1,4-dihydroquinoxaline-6-sulfonamide] the same measures were 30 to 100 nM and 30 to 100 nM.
Consider `Cc1cc(NS(=O)(=O)c2cc3[nH]c(=O)c(=O)[nH]c3cc2C)ccc1OC(F)(F)F` [Compound 323, 7-methyl-N-[3-methyl-4-(trifluoromethoxy)phenyl]-2,3-dioxo-1,4-dihydroquinoxaline-6-sulfonamide], for which the EC50 in assay [1] is < 30 nM; in assay [2] it was 30 to 100 nM.
For `Cc1cc2[nH]c(=O)c(=O)[nH]c2cc1S(=O)(=O)Nc1ccc(OC(F)(F)F)c(Cl)c1` [Compound 324, N-[3-chloro-4-(trifluoromethoxy)phenyl]-7-methyl-2,3-dioxo-1,4-dihydroquinoxaline-6-sulfonamide] the same measures were 30 to 100 nM and 30 to 100 nM.
For `Cc1cc2[nH]c(=O)c(=O)[nH]c2cc1S(=O)(=O)Nc1ccc(I)c(C(F)(F)F)c1` [Compound 325, N-[4-iodo-3-(trifluoromethyl)phenyl]-7-methyl-2,3-dioxo-1,4-dihydroquinoxaline-6-sulfonamide] the same measures were 1000 to 6000 nM and 100 to 1000 nM.
For `Cc1cc2[nH]c(=O)c(=O)[nH]c2cc1S(=O)(=O)Nc1ccc(-c2ccc(F)cc2)c(C(F)(F)F)c1` [Compound 326, N-[4-(4-fluorophenyl)-3-(trifluoromethyl)phenyl]-7-methyl-2,3-dioxo-1,4-dihydroquinoxaline-6-sulfonamide] the same measures were 30 to 100 nM and < 30 nM.
Regarding `Cc1cc2[nH]c(=O)c(=O)[nH]c2cc1S(=O)(=O)Nc1ccc(-c2ccc(F)cc2)c(OC(F)(F)F)c1` [Compound 327, N-[4-(4-fluorophenyl)-3-(trifluoromethoxy)phenyl]-7-methyl-2,3-dioxo-1,4-dihydroquinoxaline-6-sulfonamide], the EC50 in assay [1] and in assay [2] was 100 to 1000 nM throughout.
Take `Cc1cc2[nH]c(=O)c(=O)[nH]c2cc1S(=O)(=O)Nc1ccc(-c2ccc3nccn3c2)c(Cl)c1` [Compound 328, N-(3-chloro-4-imidazo[1,2-a]pyridin-6-yl-phenyl)-7-methyl-2,3-dioxo-1,4-dihydroquinoxaline-6-sulfonamide]: the EC50 in assay [1] and in assay [2] was 100 to 1000 nM in each case.
Regarding `Cc1cc2[nH]c(=O)c(=O)[nH]c2cc1S(=O)(=O)Nc1ccc(-c2ccc3c(c2)OCCN3C)c(Cl)c1` [Compound 329, N-[3-chloro-4-(4-methyl-2,3-dihydro-1,4-benzoxazin-7-yl)phenyl]-7-methyl-2,3-dioxo-1,4-dihydroquinoxaline-6-sulfonamide], the EC50 in assay [1] was 1000 to 6000 nM; in assay [2], 100 to 1000 nM.
For `Cc1cc2[nH]c(=O)c(=O)[nH]c2cc1S(=O)(=O)Nc1ccc(-c2cccc(N3CCN(C)CC3)c2)c(Cl)c1` [Compound 330, N-[3-chloro-4-[3-(4-methylpiperazin-1-yl)phenyl]phenyl]-7-methyl-2,3-dioxo-1,4-dihydroquinoxaline-6-sulfonamide] the same measures were 100 to 1000 nM and 100 to 1000 nM.
For `Cc1cc2[nH]c(=O)c(=O)[nH]c2cc1S(=O)(=O)Nc1ccc(-c2cccc(OCCN(C)C)c2)c(Cl)c1` [Compound 331, N-[3-chloro-4-[3-[2-(dimethylamino)ethoxy]phenyl]phenyl]-7-methyl-2,3-dioxo-1,4-dihydroquinoxaline-6-sulfonamide] the same measures were 100 to 1000 nM and 100 to 1000 nM.
For `Cc1cc2[nH]c(=O)c(=O)[nH]c2cc1S(=O)(=O)Nc1ccc(-c2ccc(NC(=O)N(C)C)cc2)c(Cl)c1` [Compound 332, 3-[4-[2-chloro-4-[(7-methyl-2,3-dioxo-1,4-dihydroquinoxalin-6-yl)sulfonylamino]phenyl]phenyl]-1,1-dimethyl-urea] the same measures were 100 to 1000 nM and 100 to 1000 nM.
Turning to `Cc1cc2[nH]c(=O)c(=O)[nH]c2cc1S(=O)(=O)Nc1ccc(-c2cccc(CO)c2)c(Cl)c1` [Compound 333, N-[3-chloro-4-[3-(hydroxymethyl)phenyl]phenyl]-7-methyl-2,3-dioxo-1,4-dihydroquinoxaline-6-sulfonamide], the figures for the EC50 in assay [1] and in assay [2] were 100 to 1000 nM and 30 to 100 nM, respectively.
For `Cc1cc2[nH]c(=O)c(=O)[nH]c2cc1S(=O)(=O)Nc1ccc(-c2ccc3c(c2)CCNC3=O)c(Cl)c1` [Compound 334, N-[3-chloro-4-(1-oxo-3,4-dihydro-2H-isoquinolin-6-yl)phenyl]-7-methyl-2,3-dioxo-1,4-dihydroquinoxaline-6-sulfonamide] the same measures were 1000 to 6000 nM and 100 to 1000 nM.
As to `Cc1cc2[nH]c(=O)c(=O)[nH]c2cc1S(=O)(=O)Nc1ccc(-c2cccc(S(=O)(=O)N(C)C)c2)c(Cl)c1` [Compound 335, N-[3-chloro-4-[3-(dimethylsulfamoyl)phenyl]phenyl]-7-methyl-2,3-dioxo-1,4-dihydroquinoxaline-6-sulfonamide], the 50% effective concentration (EC50) in assay [1] lay within 1000 to 6000 nM; in assay [2], 100 to 1000 nM.
